Source: patent US20100160228A1, “METHOD FOR INHIBITING OR STIMULATING ANGIOGENESIS IN AN INDIVIDUAL” (VALTION TEKNILLINEN TUTKIMUSKESKUS, priority 2007, published 2010)

Legend:
[1] = test system: VEGFR2; assay: VEGFR2 kinase activity from HUVEC lysates (Kinase-Glo Plus); type: cell-based, human; details: FIG. 4B
Procedure: (§1) (A) Serum-starved subconfluent HUVEC were treated for 1 h with α1 integrin cytoplasmic tail fusion peptide (α1TAT) or TAT-scramble control fusion peptide (ScrTAT) (both at 200 nM) followed by VEGF-induction (100 ng/ml, 15 min) where indicated. Cell lysates were resolved on SDS-PAGE and immunoblotted for phosphorylated VEGFR2 (or tubulin as a control). (B) HUVEC were treated as in (A) and VEGFR2 kinase activity (mean±SD, n=3) was measured from the cell lysates. **, p<0.01. (C) Recombinant, purified TCPTP was incubated with α1 or α2 cytoplasmic tail peptides (L-amino acids) or with α1 and scrambled TAT peptides (D-amino acids) and analyzed for phosphatase activity (mean±SD, n=3).
VEGFR2 kinase activity was studied using Kinase-Glo Plus kinase assay kit according to manufacturer's protocol (Promega) with 25 µM ATP. Briefly, HUVEC plated on gelatin were serum-starved overnight, treated with 400 nM α1TAT or ScrTAT or left untreated and stimulated with 100 ng/ml VEGF for 15 min, when indicated. The cells were lysed to ice-cold lysis buffer (1% NP-40, 20 mM Hepes pH 7.4, 150 mM NaCl, 10% glycerol, 2.5 mM EDTA, complete protease inhibitor (Roche) and phosphatase inhibitor coctails I and II (Sigma)). The lysates were incubated in anti-VEGFR2 or control IgG-coated wells with shaking for 2 h and washed 3 times with lysis buffer and 3 times with cold kinase assay buffer (20 mM Hepes pH 8, 0.1 mM Na3VO4, 10 mM MnCl2, 1 mM DTT). Kinase assay was performed for 10 min at +37° C.

[2] = target: T1, Recombinant, purified TCPTP (Homo sapiens, UniProt P17706); assay: In vitro phosphatase assay with purified TCPTP protein (diFMUP substrate); type: biochemical; details: TAT peptides of D-amino acids, FIG. 4C
T1 construct: made in house
T1 sequence (P17706 1-387 isoform P17706-2): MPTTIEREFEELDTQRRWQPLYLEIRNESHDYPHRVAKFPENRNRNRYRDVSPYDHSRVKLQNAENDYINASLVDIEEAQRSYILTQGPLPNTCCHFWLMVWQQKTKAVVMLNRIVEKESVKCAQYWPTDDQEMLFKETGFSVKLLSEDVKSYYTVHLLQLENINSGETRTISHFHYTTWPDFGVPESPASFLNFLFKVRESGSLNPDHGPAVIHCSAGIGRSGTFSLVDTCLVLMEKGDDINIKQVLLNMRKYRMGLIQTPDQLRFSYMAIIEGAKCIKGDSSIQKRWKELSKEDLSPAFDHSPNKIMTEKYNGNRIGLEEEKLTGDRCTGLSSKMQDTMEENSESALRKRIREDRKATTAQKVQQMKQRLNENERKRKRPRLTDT
Procedure: as §1, with “FIG. 4. α1 integrin activates TCPTP and attenuates VEGFR2 signalling. (A) Serum-starved” for “(A) Serum-starved”
Phosphatase and kinase assays. Phosphatase assays were performed as described (8). Briefly, HUVEC were plated to collagen or gelatin coated plates and allowed to adhere for 1 h. TCPTP, SHP2 and control immunocomplexes were isolated from cell lysates, resuspended in the phosphatase assay buffer and assayed for phosphatase activity using 6,8-difluoro-4-methylumbelliferyl phosphate; Molecular Probes) as a substrate in the presence of a serine/threonine phosphatase inhibitor cocktail (Sigma). Thereafter, the antigens from the beads were used for immunoblotting. […]

[3] = test system: HUVEC; assay: VEGF-induced HUVEC proliferation assay; type: cell-based, human; details: subconfluent HUVEC on gelatine, compared to no peptide treatment, n=3
Procedure: FIG. 3. TCPTP activity controls VEGF-dependent responses in endothelial cells. (A) HUVEC were transfected with the constitutively active TCPTP (TC37) or vector control (pCG), stimulated or not with VEGF, and stained for VEGFR2 (red) and nuclei (blue) after fixation and permeabilization. Arrows indicate VEGFR2 vesicles. (B) HUVEC were treated as in (A) and subjected to trypsin digestion on ice. VEGFR2 protected from trypsin (=internalized pool) was detected by immunoblotting. The intensities of VEGFR2 bands were quantified and are expressed relative to pCG-VEGF control. A representative experiment out of 2 with similar results is shown. (C) HUVEC were transfected with no oligo, siRNA against TCPTP or a control siRNA, and TCPTP expression was measured using immunoblotting. […] (D) HUVEC were transfected as in (A) and chemotaxis towards VEGF was measured using a Transwell assay for 4 hours. […] Number of migrated cells was counted (mean±SEM, n=3).
Cell proliferation and survival assays. The number of viable HUVEC was analyzed with WST-1 reagent (Roche). Cell proliferation was measured with BrdU assay (Cell proliferation ELISA Biotrak system, Amersham) from siRNA-transfected HUVEC grown in RPMI1640+1% FBS+2 mM L-glutamine supplemented with 80 ng/ml VEGF.

[4] = test system: VEGFR2; assay: Immunoblot of phosphorylated VEGFR2 in HUVEC lysates; type: cell-based, human; details: for effect on VEGFR2 phosphorylation in confluent cells: confluent HUVEC, FIG. 10A; for effect on VEGFR2 phosphorylation in confluent cells / effect of TAT peptides on VEGFR2 phosphorylation: peptide 200 nM
Procedure: as §1, with “FIG. 4. α1 integrin activates TCPTP and attenuates VEGFR2 signalling. (A) Serum-starved” for “(A) Serum-starved”
FIG. 10. […] (A) Serum-starved HUVEC were plated to confluency on gelatin and treated for 1 h with α1 integrin cytoplasmic tail fusion peptide (α1TAT) or TAT-scramble control fusion peptide (ScrTAT) (both at 200 nM) or not treated, followed by VEGF-induction (15 min) when indicated. Cell lysates were immunoblotted for phosphorylated VEGFR2 (or tubulin as a control). (B) Confluent HUVEC on gelatin were treated with VEGF in the presence or absence of α1TAT or ScrTAT peptide and the number of live cells was detected using WST-1 reagent (mean±SD, n=3). (C) α1TAT treatment has no effect on internalization of VEGFR2 in confluent HUVEC. HUVEC were plated to confluency on gelatin, stimulated or not with the TAT peptides (200 nM) and VEGF, and treated with trypsin on ice. Cells were lysed after inactivation of trypsin and the lysates were immunoblotted for detection of VEGFR2 protected from trypsin (=internalized pool). The intensity of VEGFR2 bands was quantitated using densitometry (a representative experiment out of 3 with similar results is shown).

Sequence	increase of VEGFR2 kinase activity upon VEGF-stimulation ([1]; HUVEC treated with no peptide or with scrambled control TAT peptide)	activation of TCPTP phosphatase activity [2]	inhibition of VEGF-induced proliferation [3]	effect on VEGFR2 phosphorylation in confluent cells [4]	effect of TAT peptides on VEGFR2 phosphorylation ([4]; subconfluent HUVEC, FIG. 4A)	kinase activity of VEGFR2 in VEGF-treated HUVEC ([1]; VEGF 100 ng/ml 15 min)	VEGF-induced autophosphorylation of VEGFR2 at tyrosine 1214 ([4]; subconfluent HUVEC, peptide 200 nM 1 h, VEGF 100 ng/ml 15 min, FIG. 4A)
YGRKKRRQRRRLKGWRFKLKPKFKEMK (SEQ ID NO 8) [ScrTAT, reference compound]	about 10 fold	no effect	4±4%	no effects	induced a clear phosphorylation		
YGRKKRRQRRRWKLGFFKRPLKKKMEK (SEQ ID NO 3) [α1TAT]		very good activator	74±8%	no effects	effectively attenuated	completely abolished	markedly inhibited
